By IC50 is commonly meant the concentration needed to halve the response being measured.

In experiment [1] the test system is Human peripheral blood mononuclear cells (PBMC). The experiment can be described thus: TNF-α release from LPS-stimulated PBMC. Format: cell-based. Particulars: Lipopolysaccharide 1 microg/ml, 18 hours, AlphaLISA, read-out: TNF-α IC50 range. Here is the method: Human peripheral blood mononuclear cells (PBMC) were isolated from fresh buffy coats by density centrifugation using lymphoprep tubes (Medinor). Frozen PBMC's were washed in serum free assay buffer (RPMI1640 with 25 mM HEPES, 1% pen/strep, […] L glutamine, 0.5% human serum albumin) and living cells counted. Lipopolysaccharide (1 microg/ml; SIGMA) was added to the cells which were then transferred to 384 well tissue culture plates ([…]) containing titrated test compounds. The cells were incubated for 18 hours at 37° C. in serum free assay buffer and the level of TNFalpha in the supernatant was quantitated by AlphaLISA (PerkinElmer) by measuring fluorescence intensity at 615 nm.
Results were expressed as IC50 values calculated from inhibition curves using as controls the secretion in LPS stimulated wells and the secretion in cells incubated with 10 microM of a PDE4 inhibitor reference compound.
On the technique in general: Bead proximity is the source of the signal in Alpha formats.

Experiment [2] concerns the target human PDE4D catalytic domain (UniProt no. Q08499 [S380-L740]) (Homo sapiens (Human), UniProt Q08499). The experiment can be described thus: PDE4 assay (TR-FRET, cAMP hydrolysis). The following applies: read-out: PDE4 IC50 range. Format: biochemical. The procedure: The human PDE4D catalytic domain (UniProt no. Q08499 [S380-L740]) was incubated with a mixture of non-labelled cAMP (cyclic adenosine monophosphate) and fluorescein amidite (FAM) conjugated cAMP and titrated test or reference compound.
Following brief incubation the enzymatic reaction was stopped by addition of binding buffer containing nanoparticles with immobilized trivalent metal ions capable of binding 1) AMP phospho groups and 2) terbium (Tb) donor fluorophores. Subsequent excitation of the Tb donor triggered time-resolved FRET to adjacent FAM acceptor molecules resulting in light emission. In the presence of a PDE4 inhibitor, AMP generation was reduced resulting in a lower fluorescence signal. The cAMP phosphodiester is not bound by the detection system.
Results were expressed as IC50 values (nM) calculated from inhibition curves where the TR-FRET signal was normalized to Tb fluorescence intensity and the negative (DMSO vehicle) and positive (10 microM a PDE4 inhibitor reference compound) controls.
On the technique in general: TR-FRET usually uses a lanthanide donor and a delayed reading to cut background.

Sequence of human PDE4D catalytic domain (Q08499 380-740): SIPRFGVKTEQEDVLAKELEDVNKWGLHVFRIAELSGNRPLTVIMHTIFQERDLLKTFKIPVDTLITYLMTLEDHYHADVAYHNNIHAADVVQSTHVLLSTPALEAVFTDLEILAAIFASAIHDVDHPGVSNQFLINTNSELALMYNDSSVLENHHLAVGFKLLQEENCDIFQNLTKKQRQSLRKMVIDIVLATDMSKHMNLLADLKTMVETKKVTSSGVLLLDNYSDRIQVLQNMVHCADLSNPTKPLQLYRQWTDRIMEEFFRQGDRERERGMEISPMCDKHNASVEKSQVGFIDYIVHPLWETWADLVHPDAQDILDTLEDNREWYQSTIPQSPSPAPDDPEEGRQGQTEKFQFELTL

As for `Cc1ncc(C(=O)OC2CN(c3nc4c(c(N(C)C5CCOCC5)n3)[S+]([O-])CC4)C2)cn1` (centres unmarked) [Example 27, [1-[4-[methyl(tetra-hydropyran-4-yl)amino]-5-oxido-6,7-dihydro-thieno[3,2-d]pyrimidin-5-ium-2-yl]azetidin-3-yl] 2-methylpyrimidine-5-carboxylate], the IC50 in experiment [1] and in experiment [2] was less than 100 nM each time.

For the compound `Cc1nc(C(=O)OC2CN(c3nc4c(c(N(C)C5CCOCC5)n3)[S+]([O-])CC4)C2)cs1` (centres unmarked) [Example 35, [1-[4-[methyl(tetra-hydropyran-4-yl)amino]-5-oxido-6,7-dihydro-thieno[3,2-d]pyrimidin-5-ium-2-yl]azetidin-3-yl] 2-methylthiazole-4-carboxylate], the IC50 in experiment [1] and in experiment [2] was less than 100 nM throughout.

As to `Cc1ncc(C(=O)OC2CN(c3nc4c(c(N(C)C5CCOCC5)n3)[S+]([O-])CC4)C2)o1` (centres unmarked) [Example 21, [1-[4-[methyl(tetra-hydropyran-4-yl)amino]-5-oxido-6,7-dihydro-thieno[3,2-d]pyrimidin-5-ium-2-yl]azetidin-3-yl] 2-methyloxazole-5-carboxylate], the IC50 in experiment [1] and in experiment [2] was less than 100 nM in each case.

For `CN(c1nc(N2CC(OC(=O)C3CCS(=O)(=O)CC3)C2)nc2c1[S+](O)CC2)C1CCOCC1` (centres unmarked) [Example 50, [1-[4-[methyl(tetra-hydropyran-4-yl)amino]-5-oxido-6,7-dihydro-thieno[3,2-d]pyrimidin-5-ium-2-yl]azetidin-3-yl] 1,1-dioxothiane-4-carboxylate], the IC50 in experiment [1] and in experiment [2] was 100 to 500 nM in each case.

Consider `CC(C)S(=O)(=O)c1cccc(C(=O)OC2CN(c3nc4c(c(N(C)C5CCOCC5)n3)[S+](O)CC4)C2)c1` (centres unmarked) [Example 59, [1-[4-[methyl(tetra-hydropyran-4-yl)amino]-5-oxido-6,7-dihydro-thieno[3,2-d]pyrimidin-5-ium-2-yl]azetidin-3-yl] 3-isopropylsulfonyl-benzoate], for which the IC50 in experiment [1] and in experiment [2] was less than 100 nM throughout.

With `O=C(OC1CN(c2nc3c(c(NC4CC5(COC5)C4)n2)[S@@+]([O-])CC3)C1)c1cscn1` (single isomer, unassigned) [Example 70], the IC50 in experiment [1] and in experiment [2] was less than 100 nM in each case.

For the compound `CN(c1nc(N2CC(OC(=O)c3cnn(C)c3)C2)nc2c1[S+]([O-])CC2)C1CCOCC1` (centres unmarked) [Example 18, [1-[4-[methyl(tetra-hydropyran-4-yl)amino]-5-oxido-6,7-dihydro-thieno[3,2-d]pyrimidin-5-ium-2-yl]azetidin-3-yl] 1-methylpyrazole-4-carboxylate], the IC50 in experiment [1] and in experiment [2] was less than 100 nM throughout.

Regarding `CCCN(c1nc(N2CC(OC(=O)c3cscn3)C2)nc2c1[S+]([O-])CC2)C1CCOCC1` (centres unmarked) [Example 10, [1-[4-[Propyl(tetrahydropyran-4-yl)amino]-5-oxido-6,7-dihydrothieno[3,2-d]pyrimidin-5-ium-2-yl]azetidin-3-yl] thiazole-4-carboxylate], the IC50 in experiment [1] and in experiment [2] was more than 500 nM throughout.

Regarding `CC(=O)N1CCC(Nc2nc(N3CC(OC(=O)c4cscn4)C3)nc3c2[S+](O)CC3)CC1` (centres unmarked) [Example 76, [1-[4-[(1-acetyl-4-piperidyl)amino]-5-oxido-6,7-dihydrothieno[3,2-d]pyrimidin-5-ium-2-yl]-azetidin-3-yl] thiazole-4-carboxylate], the IC50 in experiment [1] was more than 500 nM; in experiment [2], 100 to 500 nM.

With `CN(c1nc(N2CC(OC(=O)c3cn(C)cn3)C2)nc2c1[S+]([O-])CC2)C1CCOCC1` (centres unmarked) [Example 19, [1-[4-[methyl(tetra-hydropyran-4-yl)amino]-5-oxido-6,7-dihydro-thieno[3,2-d]pyrimidin-5-ium-2-yl]azetidin-3-yl] 1-methylimidazole-4-carboxylate], the IC50 in experiment [1] and in experiment [2] was less than 100 nM in each case.

Regarding `CN(c1nc(N2CC(OC(=O)c3ccccc3F)C2)nc2c1[S+]([O-])CC2)C1CCOCC1` (centres unmarked) [Example 29, [1-[4-[methyl(tetra-hydropyran-4-yl)amino]-5-oxido-6,7-dihydro-thieno[3,2-d]pyrimidin-5-ium-2-yl]azetidin-3-yl] 2-fluorobenzoate], the IC50 in experiment [1] and in experiment [2] was less than 100 nM in each case.

`O=C(OC1CN(c2nc3c(c(NC4CC5(COC5)C4)n2)[S+]([O-])CC3)C1)c1cnsc1` (stereo in doubt) [Example 68, [1-[(5R)-4-(6-oxaspiro-[3.3]heptan-2-ylamino)-5-oxido-6,7-dihydrothieno-[3,2-d]pyrimidin-5-ium-2-yl]azetidin-3-yl] isothia-zole-4-carboxylate]: the IC50 in experiment [1] and in experiment [2] was less than 100 nM in each case.

Take `COC(=O)N1CCC(C(=O)OC2CN(c3nc4c(c(N(C)C5CCOCC5)n3)[S+](O)CC4)C2)CC1` (centres unmarked) [Example 52, O1-methyl O4-[1-[4-[methyl(tetrahydro-pyran-4-yl)amino]-5-oxido-6,7-dihydro-thieno[3,2-d]pyrimidin-5-ium-2-yl]azetidin-3-yl] piperidine-1,4-dicarboxylate]: the IC50 in experiment [1] and in experiment [2] was less than 100 nM in each case.

For `Cc1nc(C(=O)OC2CN(c3nc4c(c(N(C)C5CCOCC5)n3)[S+]([O-])CC4)C2)co1` (centres unmarked) [Example 20, [1-[4-[methyl(tetra-hydropyran-4-yl)amino]-5-oxido-6,7-dihydro-thieno[3,2-d]pyrimidin-5-ium-2-yl]azetidin-3-yl] 2-methyloxazole-4-carboxylate], the IC50 in experiment [1] and in experiment [2] was less than 100 nM in each case.

Consider `CC(=O)N1CCC(Nc2nc(N3CC(OC(=O)C4CCOCC4)C3)nc3c2[S+](O)CC3)CC1` (centres unmarked) [Example 77, [1-[4-[(1-acetyl-4-piperidyl)amino]-5-oxido-6,7-dihydrothieno[3,2-d]pyrimidin-5-ium-2-yl]azetidin-3-yl] tetra-hydropyran-4-carboxylate], for which the IC50 in experiment [1] and in experiment [2] was 100 to 500 nM throughout.

With `CCn1cc(C(=O)OC2CN(c3nc4c(c(N(C)C5CCOCC5)n3)[S+]([O-])CC4)C2)cn1` (centres unmarked) [Example 32, [1-[4-[methyl(tetra-hydropyran-4-yl)amino]-5-oxido-6,7-dihydro-thieno[3,2-d]pyrimidin-5-ium-2-yl]azetidin-3-yl] 1-ethylpyrazole-4-carboxylate], the IC50 in experiment [1] and in experiment [2] was less than 100 nM each time.

In the case of `Cc1ccc(C(=O)OC2CN(c3nc4c(c(N(C)C5CCOCC5)n3)[S+]([O-])CC4)C2)cc1` (centres unmarked) [Example 26, [1-[4-[methyl(tetra-hydropyran-4-yl)amino]-5-oxido-6,7-dihydro-thieno[3,2-d]pyrimidin-5-ium-2-yl]azetidin-3-yl] 4-methylbenzoate], the IC50 in experiment [1] and in experiment [2] was less than 100 nM in each case.

For `CN(c1nc(N2CC(OC(=O)C3CCSCC3)C2)nc2c1[S+](O)CC2)C1CCOCC1` (centres unmarked) [Example 40, [1-[4-[methyl(tetra-hydropyran-4-yl)amino]-5-oxido-6,7-dihydro-thieno[3,2-d]pyrimidin-5-ium-2-yl]azetidin-3-yl] tetrahydrothiopyran-4-carboxylate], the IC50 in experiment [1] and in experiment [2] was less than 100 nM throughout.

`CN(c1nc(N2CC(OC(=O)c3cnsc3)C2)nc2c1[S+]([O-])CC2)C1CCOCC1` (stereo in doubt) [Example 4, [1-[(5R)-4-[Methyl(tetrahydropyran-4-yl)amino]-5-oxido-6,7-dihydrothieno[3,2-d]pyrimidin-5-ium-2-yl]azetidin-3-yl] isothiazole-4-carboxylate]: the IC50 in experiment [1] and in experiment [2] was less than 100 nM throughout.

`CN(c1nc(N2CC(OC(=O)[C@H]3CC[C@@H](O)CC3)C2)nc2c1[S+](O)CC2)C1CCOCC1` (some centres unmarked) [Example 38, [1-[4-[methyl(tetra-hydropyran-4-yl)amino]-5-oxido-6,7-dihydro-thieno[3,2-d]pyrimidin-5-ium-2-yl]azetidin-3-yl] 4-hydroxycyclohexane-carboxylate]: the IC50 in experiment [1] and in experiment [2] was less than 100 nM each time.

With `CCN(c1nc(N2CC(OC(=O)c3cnsc3)C2)nc2c1[S+]([O-])CC2)C1CCOCC1` (centres unmarked) [Example 7, [1-[4-[Ethyl(tetrahydropyran-4-yl)amino]-5-oxido-6,7-dihydrothieno[3,2-d]pyrimidin-5-ium-2-yl]azetidin-3-yl] isothiazole-4-carboxylate], the IC50 in experiment [1] and in experiment [2] was 100 to 500 nM in each case.

For the compound `CCc1nc(C(=O)OC2CN(c3nc4c(c(N(C)C5CCOCC5)n3)[S+]([O-])CC4)C2)co1` (centres unmarked) [Example 33, [1-[4-[methyl(tetra-hydropyran-4-yl)amino]-5-oxido-6,7-dihydro-thieno[3,2-d]pyrimidin-5-ium-2-yl]azetidin-3-yl] 2-ethyloxazole-4-carboxylate], the IC50 in experiment [1] and in experiment [2] was less than 100 nM in each case.

For the origin of these results see patent US11365204B2, “Substituted dihydrothienopyrimidines and their use as phosphodiesterase inhibitors” (UNION therapeutics A/S, priority 2017, dated 2022).
